The results in this text go back to paper PMC7927014, “Novel Small Molecule Hsp90/Cdc37 Interface Inhibitors Indirectly Target K-Ras-Signaling” (Cancers, 2021).

For the assay, the system named is HIF-1α. In words: Western blotting of HIF-1α in nuclear extracts. Type of assay: cell-based. The following applies: Western blot of nuclear extracts, 24 h; K-RasG12V-transfected HEK and MDA-MB-231 cells; conglobatin A 5 or 10 μM, 17-AAG 2 μM. The protocol: The cells in the RIPA buffer were placed on ice for 20 min, and were then sonicated in ice cold water for 5 min. […] Equal amounts of protein were separated by 10% SDS-PAGE, and were then transferred onto a nitrocellulose membrane (cat. no. NBA 083C001EA, Protran) using a wet transfer system (Bio-Rad) or semidry Transferblot Turbo Transfer System (Bio-Rad). After the transfer, the membranes were blocked for 30 min in 5% skimmed milk dissolved in 1× TBST, and then incubated with 1:2000 primary antibodies in 5% BSA in TBST at 4 °C overnight.
The next day, the membranes were washed three times in TBST for 10 min, and then incubated with secondary antibodies (1:5000) diluted in 5% skimmed milk in TBST for 1 h at RT. […] All of the antigens and molecular weights in kDa are labelled next to the blots on the figures. Uncropped Western blot data are attached as Figure S6.

For the molecule `C/C1=C\[C@H](C)C[C@H](C)[C@H](Cc2cnco2)OC(=O)/C(C)=C/[C@H](C)C[C@H](C)[C@H](Cc2cnco2)OC1=O` [conglobatin A, reference compound], the “nuclear levels of HIF-1α” value is given as “decreased the nuclear levels of HIF-1α”.
